Test results published in paper PMC10408569, “Recruitment of hexahydroquinoline as anticancer scaffold targeting inhibition of wild and mutants EGFR (EGFR^WT, EGFR^T790M, and EGFR^L858R)” (Journal of Enzyme Inhibition and Medicinal Chemistry, 2023).

How the values were obtained:
SNB-75 = experiment: NCI-60 anticancer screening (SRB); format: cell-based; conditions: Homo sapiens; SNB-75, CNS cancer; one dose 10 μM; read-out: Growth Inhibition Percentage (GI %)
T-47D = experiment: NCI-60 anticancer screening (SRB); format: cell-based; conditions: Homo sapiens, T47D, breast cancer, one dose 10 μM, read-out: Growth Inhibition Percentage (GI %)
M14 = experiment: NCI-60 anticancer screening (SRB); format: cell-based; conditions: Homo sapiens; M14, melanoma; one dose 10 μM; read-out: Growth Inhibition Percentage (GI %)
786-0 = experiment: NCI-60 anticancer screening (SRB); format: cell-based; conditions: Homo sapiens; 786-0, renal cancer; one dose 10 μM; read-out: Growth Inhibition Percentage (GI %)
KM 12 = experiment: NCI-60 anticancer screening (SRB); format: cell-based; conditions: Homo sapiens, KM12; KM 12, colon cancer; one dose 10 μM; read-out: Growth Inhibition Percentage (GI %)
NCI-H522 = experiment: NCI-60 anticancer screening (SRB); format: cell-based; conditions: Homo sapiens; NCI-H522, NSC lung cancer; one dose 10 μM; read-out: Growth Inhibition Percentage (GI %)
HL-60(TB) = experiment: NCI-60 anticancer screening (SRB); format: cell-based; conditions: Homo sapiens, leukemia, one dose 10 μM, read-out: Growth Inhibition Percentage (GI %)
HCC-2998 = experiment: NCI-60 anticancer screening (SRB); format: cell-based; conditions: Homo sapiens; HCC-2998, colon cancer; one dose 10 μM; read-out: Growth Inhibition Percentage (GI %)
SF-539 = experiment: NCI-60 anticancer screening (SRB); format: cell-based; conditions: Homo sapiens; SF-539, CNS cancer; one dose 10 μM; read-out: Growth Inhibition Percentage (GI %)
SK-MEL-28 = experiment: NCI-60 anticancer screening (SRB); format: cell-based; conditions: Homo sapiens; SK-MEL-28, melanoma; one dose 10 μM; read-out: Growth Inhibition Percentage (GI %)
NCI-H322M = experiment: NCI-60 anticancer screening (SRB); format: cell-based; conditions: Homo sapiens, NSC lung cancer, one dose 10 μM, read-out: Growth Inhibition Percentage (GI %)
UACC-62 = experiment: NCI-60 anticancer screening (SRB); format: cell-based; conditions: Homo sapiens; UACC-62, melanoma; one dose 10 μM; read-out: Growth Inhibition Percentage (GI %)
HOP-62 = experiment: NCI-60 anticancer screening (SRB); format: cell-based; conditions: Homo sapiens; HOP-62, NSC lung cancer; one dose 10 μM; read-out: Growth Inhibition Percentage (GI %)
HT29 = experiment: NCI-60 anticancer screening (SRB); format: cell-based; conditions: Homo sapiens, HT-29; HT29, colon cancer; one dose 10 μM; read-out: Growth Inhibition Percentage (GI %)
RPMI-8226 = experiment: NCI-60 anticancer screening (SRB); format: cell-based; conditions: Homo sapiens; RPMI-8226, leukemia; one dose 10 μM; read-out: Growth Inhibition Percentage (GI %)
TK-10 = experiment: NCI-60 anticancer screening (SRB); format: cell-based; conditions: Homo sapiens; TK-10, renal cancer; one dose 10 μM; read-out: Growth Inhibition Percentage (GI %)
NCI/ADR-RES = experiment: NCI-60 anticancer screening (SRB); format: cell-based; conditions: Homo sapiens, ovarian cancer, one dose 10 μM, read-out: Growth Inhibition Percentage (GI %)
EKVX = experiment: NCI-60 anticancer screening (SRB); format: cell-based; conditions: Homo sapiens, NSC lung cancer, one dose 10 μM, read-out: Growth Inhibition Percentage (GI %)
SF-268 = experiment: NCI-60 anticancer screening (SRB); format: cell-based; conditions: Homo sapiens; SF-268, CNS cancer; one dose 10 μM; read-out: Growth Inhibition Percentage (GI %)
SK-MEL-5 = experiment: NCI-60 anticancer screening (SRB); format: cell-based; conditions: Homo sapiens; SK-MEL-5, melanoma; one dose 10 μM; read-out: Growth Inhibition Percentage (GI %)
CAKI-1 = experiment: NCI-60 anticancer screening (SRB); format: cell-based; conditions: Homo sapiens; CAKI-1, renal cancer; one dose 10 μM; read-out: Growth Inhibition Percentage (GI %)
NCI-H460 = experiment: NCI-60 anticancer screening (SRB); format: cell-based; conditions: Homo sapiens; NCI-H460, NSC lung cancer; one dose 10 μM; read-out: Growth Inhibition Percentage (GI %)
RXF 393 = experiment: NCI-60 anticancer screening (SRB); format: cell-based; conditions: Homo sapiens; RXF 393, renal cancer; one dose 10 μM; read-out: Growth Inhibition Percentage (GI %)
MDA-MB-231 = experiment: NCI-60 anticancer screening (SRB); format: cell-based; conditions: Homo sapiens; MDA-MB-231, breast cancer; one dose 10 μM; read-out: Growth Inhibition Percentage (GI %)
DU-145 = experiment: NCI-60 anticancer screening (SRB); format: cell-based; conditions: Homo sapiens; DU-145, prostate cancer; one dose 10 μM; read-out: Growth Inhibition Percentage (GI %)
HCT-15 = experiment: NCI-60 anticancer screening (SRB); format: cell-based; conditions: Homo sapiens; HCT-15, colon cancer; one dose 10 μM; read-out: Growth Inhibition Percentage (GI %)
SF-295 = experiment: NCI-60 anticancer screening (SRB); format: cell-based; conditions: Homo sapiens; SF-295, CNS cancer; one dose 10 μM; read-out: Growth Inhibition Percentage (GI %)
SN 12C = experiment: NCI-60 anticancer screening (SRB); format: cell-based; conditions: Homo sapiens, SN12C; SN 12C, renal cancer; one dose 10 μM; read-out: Growth Inhibition Percentage (GI %)
MDA-MB-435 = experiment: NCI-60 anticancer screening (SRB); format: cell-based; conditions: Homo sapiens; MDA-MB-435, melanoma; one dose 10 μM; read-out: Growth Inhibition Percentage (GI %)
SNB-19 = experiment: NCI-60 anticancer screening (SRB); format: cell-based; conditions: Homo sapiens; SNB-19, CNS cancer; one dose 10 μM; read-out: Growth Inhibition Percentage (GI %)
A549/ATCC = experiment: NCI-60 anticancer screening (SRB); format: cell-based; conditions: Homo sapiens; A549/ATCC, NSC lung cancer; one dose 10 μM; read-out: Growth Inhibition Percentage (GI %)
NCI 60 cancer cell lines = experiment: NCI-60 anticancer screening (SRB), whole panel; format: cell-based, human; conditions: mean across the NCI-60 panel; one dose 10 μM

| Compound | inhibition at 10 µM (SNB-75) [%] | inhibition at 10 µM (T-47D) [%] | inhibition at 10 µM (M14) [%] | inhibition at 10 µM (786-0) [%] | inhibition at 10 µM (KM 12) [%] | inhibition at 10 µM (NCI-H522) [%] | inhibition at 10 µM (HL-60(TB)) [%] | inhibition at 10 µM (HCC-2998) [%] | inhibition at 10 µM (SF-539) [%] | inhibition at 10 µM (SK-MEL-28) [%] | inhibition at 10 µM (NCI-H322M) [%] | inhibition at 10 µM (UACC-62) [%] | inhibition at 10 µM (HOP-62) [%] | inhibition at 10 µM (HT29) [%] | inhibition at 10 µM (RPMI-8226) [%] | inhibition at 10 µM (TK-10) [%] | inhibition at 10 µM (NCI/ADR-RES) [%] | inhibition at 10 µM (EKVX) [%] | inhibition at 10 µM (SF-268) [%] | inhibition at 10 µM (SK-MEL-5) [%] | other results |
| --- | --- | --- | --- | --- | --- | --- | --- | --- | --- | --- | --- | --- | --- | --- | --- | --- | --- | --- | --- | --- | --- |
| CCOC(=O)C1=C(N)N(c2ccc(Cl)cc2)C2=C(C(=O)CC(C)(C)C2)C1c1ccc(N2CCOCC2)cc1 (racemic) [8m, (±)-Ethyl 2-amino-1–(4-chlorophenyl)-7,7-dimethyl-4-[4-(morpholin-4-yl)phenyl]-5-oxo-1,4,5,6,7,8-hexahydroquinoline-3-carboxylate] | < 10 | < 10 | < 10 | 11 | < 10 | 11 | < 10 | < 10 | < 10 | < 10 | < 10 | 17 | < 10 | < 10 | < 10 | < 10 | < 10 | 25 | < 10 | 20 | inhibition at 10 µM (CAKI-1): 13%; inhibition at 10 µM (NCI-H460): < 10%; inhibition at 10 µM (RXF 393): < 10%; inhibition at 10 µM (MDA-MB-231): 13%; inhibition at 10 µM (DU-145): < 10%; inhibition at 10 µM (HCT-15): < 10%; inhibition at 10 µM (SF-295): 11%; inhibition at 10 µM (SN 12C): < 10%; inhibition at 10 µM (MDA-MB-435): < 10%; inhibition at 10 µM (SNB-19): < 10%; inhibition at 10 µM (A549/ATCC): < 10%; GI % mean (NCI 60 cancer cell lines): - ((-) = GI % mean less than 10) |
| CCOC(=O)C1=C(N)N(c2ccc(Cl)cc2)C2=C(C(=O)CC(C)(C)C2)C1c1ccccc1Cl (racemic) [6c, (±)-Ethyl 2-amino-4–(2-chlorophenyl)-1–(4-chlorophenyl)-7,7-dimethyl-5-oxo-1,4,5,6,7,8-hexahydroquinoline-3-carboxylate] | 17 | 67 | 28 | 15 | 44 | 63 | 75 | 24 | < 10 | < 10 | < 10 | 45 | 19 | 60 | < 10 | 43 | 24 | 30 | 23 | 66 | inhibition at 10 µM (CAKI-1): 43%; inhibition at 10 µM (NCI-H460): 58%; inhibition at 10 µM (RXF 393): < 10%; inhibition at 10 µM (MDA-MB-231): 24%; inhibition at 10 µM (DU-145): < 10%; inhibition at 10 µM (HCT-15): 62%; inhibition at 10 µM (SF-295): 27%; inhibition at 10 µM (SN 12C): 31%; inhibition at 10 µM (MDA-MB-435): 29%; inhibition at 10 µM (SNB-19): 27%; inhibition at 10 µM (A549/ATCC): 51%; GI % mean (NCI 60 cancer cell lines): 34% |
